This is an account of results in US12065436B2, “Cardiac sarcomere inhibitors” (Cytokinetics, Inc., priority 2018, dated 2024).

Each structure is given as a SMILES string. A value given as a limit tells only on which side of the number the result lay.

This assay concerns the target bovine cardiac myofibrils (full-length cardiac myosin ATPase in the native sarcomere) (Bos taurus (Bovine), UniProt Q9BE39). Nature of the assay: Skinned bovine cardiac myofibril ATPase assay (PK/LDH-coupled). To be noted: Ca2+ activating to 75% of maximal rate; for CDMF75 IC15: concentration giving 15% inhibition; for IC50: read-out: CDMF75 IC50. Format: biochemical. The essentials:
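Triton-skinned bovine left-ventricle myofibrils (1 mg/mL) in PM 12 buffer (12 mM PIPES, 2 mM MgCl2, pH 6.8) with 50 μM ATP, 0.6 mM EGTA and CaCl2 set for 50% or 75% activation. Steady-state ATPase inhibition followed by PK/LDH-coupled NADH oxidation at 340 nm.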

Sequence of bovine cardiac myofibrils (full-length cardiac myosin ATPase in the native sarcomere) (Q9BE39 whole entry): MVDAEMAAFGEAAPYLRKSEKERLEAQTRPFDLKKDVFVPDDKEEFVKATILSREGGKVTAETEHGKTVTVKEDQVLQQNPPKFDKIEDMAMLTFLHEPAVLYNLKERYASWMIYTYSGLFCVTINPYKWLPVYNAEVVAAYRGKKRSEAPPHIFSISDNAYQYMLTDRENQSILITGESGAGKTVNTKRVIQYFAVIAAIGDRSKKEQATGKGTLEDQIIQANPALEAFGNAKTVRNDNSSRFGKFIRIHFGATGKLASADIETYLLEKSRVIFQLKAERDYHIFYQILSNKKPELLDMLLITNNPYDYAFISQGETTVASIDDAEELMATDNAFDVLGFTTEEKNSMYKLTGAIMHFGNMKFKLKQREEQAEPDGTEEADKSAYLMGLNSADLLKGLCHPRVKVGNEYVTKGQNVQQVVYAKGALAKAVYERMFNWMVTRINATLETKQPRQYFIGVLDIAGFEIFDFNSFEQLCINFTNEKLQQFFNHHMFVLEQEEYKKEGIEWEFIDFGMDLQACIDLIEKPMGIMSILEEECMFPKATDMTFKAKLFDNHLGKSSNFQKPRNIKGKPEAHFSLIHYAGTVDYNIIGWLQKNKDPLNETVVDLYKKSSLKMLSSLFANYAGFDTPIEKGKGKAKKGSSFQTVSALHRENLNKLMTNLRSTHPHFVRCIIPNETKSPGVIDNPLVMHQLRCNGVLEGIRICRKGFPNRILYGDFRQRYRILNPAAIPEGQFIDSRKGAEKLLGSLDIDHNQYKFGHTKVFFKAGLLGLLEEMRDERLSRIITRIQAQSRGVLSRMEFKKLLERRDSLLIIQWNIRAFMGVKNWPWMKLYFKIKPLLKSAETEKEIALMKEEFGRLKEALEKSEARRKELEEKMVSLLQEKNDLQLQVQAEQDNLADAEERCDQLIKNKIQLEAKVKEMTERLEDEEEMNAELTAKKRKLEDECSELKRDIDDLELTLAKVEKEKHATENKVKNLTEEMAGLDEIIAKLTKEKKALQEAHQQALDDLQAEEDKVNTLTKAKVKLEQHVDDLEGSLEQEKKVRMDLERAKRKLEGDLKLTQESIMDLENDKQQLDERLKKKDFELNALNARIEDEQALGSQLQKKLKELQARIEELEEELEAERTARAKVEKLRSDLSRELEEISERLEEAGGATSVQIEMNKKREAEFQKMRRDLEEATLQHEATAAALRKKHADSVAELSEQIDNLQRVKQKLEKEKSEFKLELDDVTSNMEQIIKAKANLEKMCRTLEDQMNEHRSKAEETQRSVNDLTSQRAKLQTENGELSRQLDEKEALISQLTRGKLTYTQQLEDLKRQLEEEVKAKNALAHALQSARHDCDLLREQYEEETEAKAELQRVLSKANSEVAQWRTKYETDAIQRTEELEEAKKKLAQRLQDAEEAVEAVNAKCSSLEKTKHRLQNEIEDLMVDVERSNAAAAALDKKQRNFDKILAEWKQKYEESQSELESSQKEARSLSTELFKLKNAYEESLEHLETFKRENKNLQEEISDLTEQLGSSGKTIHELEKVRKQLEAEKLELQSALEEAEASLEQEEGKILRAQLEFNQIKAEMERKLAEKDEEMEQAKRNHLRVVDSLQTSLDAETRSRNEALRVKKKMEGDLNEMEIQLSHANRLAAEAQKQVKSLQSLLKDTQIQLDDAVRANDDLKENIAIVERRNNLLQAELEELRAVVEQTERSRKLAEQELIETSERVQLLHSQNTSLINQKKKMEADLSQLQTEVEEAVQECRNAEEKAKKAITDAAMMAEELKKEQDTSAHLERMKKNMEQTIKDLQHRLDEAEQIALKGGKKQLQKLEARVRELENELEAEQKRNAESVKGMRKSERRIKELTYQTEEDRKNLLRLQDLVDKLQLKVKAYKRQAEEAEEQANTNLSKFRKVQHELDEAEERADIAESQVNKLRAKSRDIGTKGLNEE
Sequence of bovine cardiac myofibrils (full-length cardiac myosin ATPase in the native sarcomere) (P85100 whole entry partner): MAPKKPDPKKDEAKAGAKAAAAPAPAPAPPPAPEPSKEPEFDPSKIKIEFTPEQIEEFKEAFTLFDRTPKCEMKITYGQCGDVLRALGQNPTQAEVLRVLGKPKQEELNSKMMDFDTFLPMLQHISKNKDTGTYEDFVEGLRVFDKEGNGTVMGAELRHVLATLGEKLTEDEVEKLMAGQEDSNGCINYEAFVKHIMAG
Sequence of bovine cardiac myofibrils (full-length cardiac myosin ATPase in the native sarcomere) (Q3SZE5 whole entry partner): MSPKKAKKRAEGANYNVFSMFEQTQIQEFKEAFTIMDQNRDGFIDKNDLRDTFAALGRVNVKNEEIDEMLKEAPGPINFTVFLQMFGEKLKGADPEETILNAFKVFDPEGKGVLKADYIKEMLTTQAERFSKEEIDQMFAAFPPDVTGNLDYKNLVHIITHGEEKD

As usually defined, the IC50 is the midpoint of a concentration-inhibition curve. On to `COCc1nc(-c2ccc3c(c2)CC[C@H]3NC(=O)c2cc(OC)no2)no1` [Compound 693, (R)-3-methoxy-N-(5-(5-(methoxymethyl)-1,2,4-oxadiazol-3-yl)-2,3-dihydro-1H-inden-1-yl)isoxazole-5-carboxamide], for which the “CDMF75 IC15” value was 0.9 µM and the concentration for half-maximal inhibition (IC50) is 3.7 µM.

For the compound `Cn1nccc1C(=O)N[C@H]1COc2cc(-c3noc(C4CC4)n3)ccc21` [Compound 220, (R)-N-(6-(5-cyclopropyl-1,2,4-oxadiazol-3-yl)-2,3-dihydrobenzofuran-3-yl)-1-methyl-1H-pyrazole-5-carboxamide], the “CDMF75 IC15” value turned out to be 38.3 µM and the half-maximal inhibitory concentration (IC50) was over 39.2 µM.

With `CCc1nc(-c2ccc3c(c2)OC[C@H]3NC(=O)N2CC[C@H](O)C2)no1` [Compound 739, (S)-N-((S)-6-(5-ethyl-1,2,4-oxadiazol-3-yl)-2,3-dihydrobenzofuran-3-yl)-3-hydroxypyrrolidine-1-carboxamide], the “CDMF75 IC15” value amounted to 5.4 µM and the IC50 came to 24.2 µM.

Take `CCc1nc(-c2ccc3c(c2)CC[C@H]3NC(=O)c2cnn(C3CN(C(C)=O)C3)c2)no1` [Compound 477, (R)-1-(1-acetylazetidin-3-yl)-N-(5-(5-ethyl-1,2,4-oxadiazol-3-yl)-2,3-dihydro-1H-inden-1-yl)-1H-pyrazole-4-carboxamide]: the “CDMF75 IC15” value was found to be 8.5 µM and the IC50 was 39.2 µM.

With `Cc1nc(-c2ccc3c(c2)CC[C@H]3NC(=O)c2cnc(C)o2)no1` [Compound 48, (R)-2-methyl-N-(5-(5-methyl-1,2,4-oxadiazol-3-yl)-2,3-dihydro-1H-inden-1-yl)oxazole-5-carboxamide], the “CDMF75 IC15” value is 1.4 µM and the half-inhibitory concentration (IC50) stood at 4.9 µM.

On to `O=C1CC[C@H](C(=O)N[C@@H]2CCc3cc(-c4noc(C5CC5)n4)ccc32)N1` [Compound 336, (R)-N-((R)-5-(5-cyclopropyl-1,2,4-oxadiazol-3-yl)-2,3-dihydro-1H-inden-1-yl)-5-oxopyrrolidine-2-carboxamide], for which the “CDMF75 IC15” value came to 30.9 µM and the IC50 was over 39.2 µM.

Turning to `CCc1nc(-c2ccc3c(c2)OC[C@H]3NC(=O)N2CC(O)C2)no1` [Compound 741, (S)-N-(6-(5-ethyl-1,2,4-oxadiazol-3-yl)-2,3-dihydrobenzofuran-3-yl)-3-hydroxyazetidine-1-carboxamide], the “CDMF75 IC15” value was 1.9 µM and the IC50 was 10.5 µM.

As for `Cc1ncoc1C(=O)N[C@@H]1COc2cc(-c3noc(C(F)F)n3)ccc21` [Compound 453, (S)-N-(6-(5-(difluoromethyl)-1,2,4-oxadiazol-3-yl)-2,3-dihydrobenzofuran-3-yl)-4-methyloxazole-5-carboxamide], the “CDMF75 IC15” value was 0.2 µM and the IC50 is 0.7 µM.

Regarding `CCc1nc(-c2ccc3c(c2)CC[C@H]3NC(=O)c2cnn(CC(O)CO)c2)no1` (stereo partly drawn) [Compound 553, N-{(1R)-5-(5-ethyl(1,2,4-oxadiazol-3-yl))indanyl][1-(2,3-dihydroxypropyl)pyrazol-4-yl]carboxamide], the “CDMF75 IC15” value came to 1.2 µM and the half-maximal inhibitory concentration (IC50) was 5.1 µM.

Regarding `Cc1nc(-c2ccc3c(c2)CCC3NC(=O)c2ncccc2C)no1` (stereo not shown) [Compound 59, 3-methyl-N-(5-(5-methyl-1,2,4-oxadiazol-3-yl)-2,3-dihydro-1H-inden-1-yl)picolinamide], the “CDMF75 IC15” value amounted to 5.7 µM and the IC50 was found to be 28.2 µM.

For `Cc1ccnc(-c2ccc3c(c2)CC[C@H]3NC(=O)c2ccnn2C)n1` [Compound 378, (R)-1-methyl-N-(5-(4-methylpyrimidin-2-yl)-2,3-dihydro-1H-inden-1-yl)-1H-pyrazole-5-carboxamide], the “CDMF75 IC15” value was 2.1 µM and the concentration for half-maximal inhibition (IC50) amounted to 12.2 µM.

`CCc1nc(-c2ccc3c(c2)CC[C@H]3NC(=O)OCC2CN(C(=O)NC)C2)no1` [Compound 363, (1-(methylcarbamoyl)azetidin-3-yl)methyl (R)-(5-(5-ethyl-1,2,4-oxadiazol-3-yl)-2,3-dihydro-1H-inden-1-yl)carbamate]: the “CDMF75 IC15” value is 4.7 µM and the IC50 stood at 21.1 µM.

With `Cc1nc(-c2ccc3c(c2)OC[C@H]3NC(=O)c2cnn(C)c2C)no1` [Compound 163, (S)-1,5-dimethyl-N-(6-(5-methyl-1,2,4-oxadiazol-3-yl)-2,3-dihydrobenzofuran-3-yl)-1H-pyrazole-4-carboxamide], the “CDMF75 IC15” value was determined as 0.8 µM and the IC50 was 3.1 µM.

Consider `[2H]C([2H])([2H])c1noc(-c2ccc3c(c2)CC[C@H]3NC(=O)c2cnn(C)c2)n1` [Compound 274, (R)-1-methyl-N-(5-(3-(methyl-d3)-1,2,4-oxadiazol-5-yl)-2,3-dihydro-1H-inden-1-yl)-1H-pyrazole-4-carboxamide], for which the “CDMF75 IC15” value was 4.0 µM and the IC50 worked out at 15 µM.

As to `Cc1nc(-c2ccc3c(c2)CCC3NC(=O)Nc2ccncc2)no1` (stereo not shown) [Compound 85, 1-(5-(5-methyl-1,2,4-oxadiazol-3-yl)-2,3-dihydro-1H-inden-1-yl)-3-(pyridin-4-yl)urea], the “CDMF75 IC15” value worked out at 5.5 µM and the 50% inhibitory concentration (IC50) was 24.1 µM.

Consider `Cc1nc(-c2ccc3c(c2)CCC3NC(=O)c2conc2C)no1` (stereo not shown) [Compound 89, 3-methyl-N-(5-(5-methyl-1,2,4-oxadiazol-3-yl)-2,3-dihydro-1H-inden-1-yl)isoxazole-4-carboxamide], for which the “CDMF75 IC15” value stood at 1.0 µM and the 50% inhibitory concentration (IC50) amounted to 3.3 µM.

For the compound `Cc1cc(C(=O)N[C@@H]2CCc3cc(-c4nc(C)no4)ccc32)ccn1` [Compound 131, (R)-2-methyl-N-(5-(3-methyl-1,2,4-oxadiazol-5-yl)-2,3-dihydro-1H-inden-1-yl)isonicotinamide], the “CDMF75 IC15” value is 1.4 µM and the 50% inhibitory concentration (IC50) was 5.4 µM.

In the case of `Cc1c(C(=O)N[C@@H]2COc3cc(-c4noc(C(F)F)n4)ccc32)cnn1C` [Compound 210, (S)-N-(6-(5-(difluoromethyl)-1,2,4-oxadiazol-3-yl)-2,3-dihydrobenzofuran-3-yl)-1,5-dimethyl-1H-pyrazole-4-carboxamide], the “CDMF75 IC15” value is 0.5 µM and the IC50 was determined as 1.6 µM.

Regarding `Cc1ncoc1C(=O)N[C@@H]1CCc2cc(-c3noc(C(C)C)n3)ccc21` [Compound 393, (R)-N-(5-(5-isopropyl-1,2,4-oxadiazol-3-yl)-2,3-dihydro-1H-inden-1-yl)-4-methyloxazole-5-carboxamide], the “CDMF75 IC15” value is 0.4 µM and the 50% inhibitory concentration (IC50) worked out at 1.2 µM.

In the case of `[2H]C([2H])([2H])c1nc(-c2ccc3c(c2)OC[C@H]3NC(=O)c2nnn(C)n2)no1` [Compound 271, (S)-2-methyl-N-(6-(5-(methyl-d3)-1,2,4-oxadiazol-3-yl)-2,3-dihydrobenzofuran-3-yl)-2H-tetrazole-5-carboxamide], the “CDMF75 IC15” value turned out to be 4.3 µM and the IC50 is 17.1 µM.

Turning to `CCc1nc(-c2ccc3c(c2)CC[C@H]3NC(=O)c2cc(C)n(C)n2)no1` [Compound 580, (R)-N-(5-(5-ethyl-1,2,4-oxadiazol-3-yl)-2,3-dihydro-1H-inden-1-yl)-1,5-dimethyl-1H-pyrazole-3-carboxamide], the “CDMF75 IC15” value worked out at 3.1 µM and the IC50 was 17.6 µM.

For the compound `Cc1cc(C(=O)N[C@@H]2CCc3cc(-c4cnc(C)o4)ccc32)ccn1` [Compound 135, (R)-2-methyl-N-(5-(2-methyloxazol-5-yl)-2,3-dihydro-1H-inden-1-yl)isonicotinamide], the “CDMF75 IC15” value is 39.2 µM and the half-inhibitory concentration (IC50) is over 39.2 µM.

For `COCc1nc(-c2ccc3c(c2)OC[C@H]3NC(=O)c2cc(C)nn2C)no1` [Compound 227, (S)-N-(6-(5-(methoxymethyl)-1,2,4-oxadiazol-3-yl)-2,3-dihydrobenzofuran-3-yl)-1,3-dimethyl-1H-pyrazole-5-carboxamide], the “CDMF75 IC15” value is 0.7 µM and the IC50 was 2.2 µM.

For the compound `COCc1nc(-c2ccc3c(c2)OC[C@H]3NC(=O)c2cccc(CO)c2)no1` [Compound 712, (S)-3-(hydroxymethyl)-N-(6-(5-(methoxymethyl)-1,2,4-oxadiazol-3-yl)-2,3-dihydrobenzofuran-3-yl)benzamide], the “CDMF75 IC15” value is 0.5 µM and the IC50 came out at 2.4 µM.

With `Cn1cc(C(=O)NC2COc3cc(-c4noc(C5CC5)n4)ccc32)cn1` (stereo not shown) [Compound 237, N-(6-(5-cyclopropyl-1,2,4-oxadiazol-3-yl)-2,3-dihydrobenzofuran-3-yl)-1-methyl-1H-pyrazole-4-carboxamide], the “CDMF75 IC15” value was determined as 1.1 µM and the IC50 is 3.6 µM.

For the compound `CCc1nc(-c2ccc3c(c2)CC[C@H]3NC(=O)c2cn(C)nn2)no1` [Compound 616, (R)-N-(5-(5-ethyl-1,2,4-oxadiazol-3-yl)-2,3-dihydro-1H-inden-1-yl)-1-methyl-1H-1,2,3-triazole-4-carboxamide], the “CDMF75 IC15” value was 4.5 µM and the 50% inhibitory concentration (IC50) amounted to 22.9 µM.

For the compound `CCc1nc(-c2ccc3c(c2)CC[C@H]3NC(=O)c2cnn(CC(=O)O)c2)no1` [Compound 532, (R)-2-(4-((5-(5-ethyl-1,2,4-oxadiazol-3-yl)-2,3-dihydro-1H-inden-1-yl)carbamoyl)-1H-pyrazol-1-yl)acetic acid], the “CDMF75 IC15” value stood at 1.1 µM and the IC50 turned out to be 5.5 µM.

For the compound `Cc1cncc(C(=O)NC2CCc3cc(-c4noc(C(F)F)n4)ccc32)n1` (stereo not shown) [Compound 23, N-(5-(5-(difluoromethyl)-1,2,4-oxadiazol-3-yl)-2,3-dihydro-1H-inden-1-yl)-6-methylpyrazine-2-carboxamide], the “CDMF75 IC15” value was 5.8 µM and the half-maximal inhibitory concentration (IC50) was 31.4 µM.

With `COC(=O)N[C@@H]1CCc2cc(-c3noc(C4CC4)n3)ccc21` [Compound 305, methyl (R)-(5-(5-cyclopropyl-1,2,4-oxadiazol-3-yl)-2,3-dihydro-1H-inden-1-yl)carbamate], the “CDMF75 IC15” value stood at 0.3 µM and the half-inhibitory concentration (IC50) came to 1.2 µM.
